Patent US8959984B2, “Proteome-wide quantification of small molecule binding to cellular target proteins” (priority 2007, dated 2015)

Legend:
Test in all cases: binding to VI16742 beads (HeLa lysate, SILAC MS)
[1] = target: T1, SART3 (IPI00006025) (Homo sapiens, UniProt Q15020)
T1 construct: endogenous in cells; host or cells: HeLa S3
T1 sequence (Q15020 1-963): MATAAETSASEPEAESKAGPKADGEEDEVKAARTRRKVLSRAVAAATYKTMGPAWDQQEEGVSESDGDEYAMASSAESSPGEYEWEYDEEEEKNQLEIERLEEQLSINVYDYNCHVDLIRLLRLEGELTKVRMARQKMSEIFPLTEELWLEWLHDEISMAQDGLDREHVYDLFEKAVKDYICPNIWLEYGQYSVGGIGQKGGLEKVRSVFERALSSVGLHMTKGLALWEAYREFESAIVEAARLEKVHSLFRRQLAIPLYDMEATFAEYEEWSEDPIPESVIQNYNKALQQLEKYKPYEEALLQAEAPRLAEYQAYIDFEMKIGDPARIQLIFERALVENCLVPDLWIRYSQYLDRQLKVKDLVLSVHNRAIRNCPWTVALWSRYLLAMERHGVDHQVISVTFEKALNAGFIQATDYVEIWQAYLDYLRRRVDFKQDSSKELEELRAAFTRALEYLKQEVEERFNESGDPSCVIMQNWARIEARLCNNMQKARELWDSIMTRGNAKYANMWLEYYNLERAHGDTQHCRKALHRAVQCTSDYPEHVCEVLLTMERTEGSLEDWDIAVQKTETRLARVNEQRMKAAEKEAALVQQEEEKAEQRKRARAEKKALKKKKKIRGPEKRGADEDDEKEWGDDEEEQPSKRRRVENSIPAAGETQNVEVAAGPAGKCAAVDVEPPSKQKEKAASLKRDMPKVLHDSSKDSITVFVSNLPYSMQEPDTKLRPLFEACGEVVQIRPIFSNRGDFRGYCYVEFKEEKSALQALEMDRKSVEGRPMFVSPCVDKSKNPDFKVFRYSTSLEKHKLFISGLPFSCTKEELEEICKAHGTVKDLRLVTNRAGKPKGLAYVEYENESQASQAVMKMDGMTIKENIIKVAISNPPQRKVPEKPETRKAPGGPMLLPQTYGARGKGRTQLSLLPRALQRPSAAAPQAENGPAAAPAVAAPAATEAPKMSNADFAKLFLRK
Description: (§1) In an alternative implementation of the chemical proteomic approach according to the invention, the broadly-selective pyrido[2,3-d]pyrimidine-based kinase inhibitor VI16742 has been used for affinity capture (FIG. 10a). […] As shown by gene ontology analysis, the corresponding molecular functions were highly over-represented in proteins specifically retained by the inhibitor resin (FIG. 10b).

[2] = target: T2, PDE4D (IPI00002449) (Homo sapiens, UniProt Q08499)
T2 construct: endogenous in cells; host or cells: HeLa S3 cell lysate
Description: as §1

[3] = target: T3, 2-PDE (IPI00174390) (Homo sapiens, UniProt Q6L8Q7)
T3 construct: endogenous in cells; host or cells: HeLa S3 cell lysate
T3 sequence (Q6L8Q7 43-609): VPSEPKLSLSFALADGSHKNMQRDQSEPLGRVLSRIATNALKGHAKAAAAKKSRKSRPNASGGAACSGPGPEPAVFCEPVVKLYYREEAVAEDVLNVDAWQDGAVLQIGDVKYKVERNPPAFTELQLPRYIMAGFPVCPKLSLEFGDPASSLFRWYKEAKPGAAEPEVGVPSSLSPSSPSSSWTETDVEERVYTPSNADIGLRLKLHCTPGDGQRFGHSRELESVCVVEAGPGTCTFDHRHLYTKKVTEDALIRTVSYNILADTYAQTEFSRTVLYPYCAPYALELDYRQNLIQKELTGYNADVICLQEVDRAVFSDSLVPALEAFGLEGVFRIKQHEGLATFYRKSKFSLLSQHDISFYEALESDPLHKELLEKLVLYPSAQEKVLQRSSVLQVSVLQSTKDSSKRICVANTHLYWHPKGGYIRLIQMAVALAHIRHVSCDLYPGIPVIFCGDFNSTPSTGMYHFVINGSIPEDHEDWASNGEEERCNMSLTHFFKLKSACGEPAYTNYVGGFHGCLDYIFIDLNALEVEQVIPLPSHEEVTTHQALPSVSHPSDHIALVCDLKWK
Description: as §1

[4] = target: T4, ROCK2 (IPI00307155) (Homo sapiens, UniProt O75116)
T4 construct: endogenous in cells; host or cells: HeLa S3
Description: as §1

[5] = control beads vs first incubation

T4 sequence (O75116 whole entry): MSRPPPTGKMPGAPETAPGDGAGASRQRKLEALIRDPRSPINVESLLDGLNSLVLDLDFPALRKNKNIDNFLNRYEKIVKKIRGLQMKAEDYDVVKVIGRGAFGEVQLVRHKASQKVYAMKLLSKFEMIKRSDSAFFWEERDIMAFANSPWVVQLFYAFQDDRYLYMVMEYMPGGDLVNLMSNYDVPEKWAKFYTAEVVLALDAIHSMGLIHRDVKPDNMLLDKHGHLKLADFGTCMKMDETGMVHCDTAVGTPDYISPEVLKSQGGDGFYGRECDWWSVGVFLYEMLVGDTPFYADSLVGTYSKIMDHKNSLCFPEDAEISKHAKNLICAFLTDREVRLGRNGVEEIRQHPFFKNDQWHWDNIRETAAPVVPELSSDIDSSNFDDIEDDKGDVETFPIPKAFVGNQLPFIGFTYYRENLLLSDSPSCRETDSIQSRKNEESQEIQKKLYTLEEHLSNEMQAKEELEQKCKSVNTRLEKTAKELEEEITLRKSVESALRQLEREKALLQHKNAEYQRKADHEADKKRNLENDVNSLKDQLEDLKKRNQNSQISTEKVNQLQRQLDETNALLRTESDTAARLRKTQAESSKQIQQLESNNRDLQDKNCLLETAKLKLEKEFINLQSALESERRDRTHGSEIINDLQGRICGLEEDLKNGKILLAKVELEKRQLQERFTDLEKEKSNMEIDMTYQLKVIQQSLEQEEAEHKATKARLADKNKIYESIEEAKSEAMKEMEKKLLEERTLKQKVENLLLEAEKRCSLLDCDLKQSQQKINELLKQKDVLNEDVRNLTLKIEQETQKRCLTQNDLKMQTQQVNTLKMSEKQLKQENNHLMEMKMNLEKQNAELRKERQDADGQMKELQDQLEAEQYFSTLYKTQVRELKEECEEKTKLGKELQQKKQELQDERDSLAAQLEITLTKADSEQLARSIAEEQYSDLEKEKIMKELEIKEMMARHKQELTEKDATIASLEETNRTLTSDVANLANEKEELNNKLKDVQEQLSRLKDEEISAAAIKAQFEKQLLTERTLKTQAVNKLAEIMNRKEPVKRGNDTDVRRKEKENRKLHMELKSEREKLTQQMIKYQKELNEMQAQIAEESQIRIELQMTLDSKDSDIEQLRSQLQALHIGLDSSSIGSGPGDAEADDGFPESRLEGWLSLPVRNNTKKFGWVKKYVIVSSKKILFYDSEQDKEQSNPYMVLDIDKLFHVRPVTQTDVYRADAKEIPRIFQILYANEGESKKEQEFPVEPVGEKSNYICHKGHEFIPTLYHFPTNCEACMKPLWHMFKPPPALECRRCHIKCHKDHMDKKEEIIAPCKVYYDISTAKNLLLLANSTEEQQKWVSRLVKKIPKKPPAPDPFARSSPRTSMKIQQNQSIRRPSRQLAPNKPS
T2 sequence (Q08499 whole entry): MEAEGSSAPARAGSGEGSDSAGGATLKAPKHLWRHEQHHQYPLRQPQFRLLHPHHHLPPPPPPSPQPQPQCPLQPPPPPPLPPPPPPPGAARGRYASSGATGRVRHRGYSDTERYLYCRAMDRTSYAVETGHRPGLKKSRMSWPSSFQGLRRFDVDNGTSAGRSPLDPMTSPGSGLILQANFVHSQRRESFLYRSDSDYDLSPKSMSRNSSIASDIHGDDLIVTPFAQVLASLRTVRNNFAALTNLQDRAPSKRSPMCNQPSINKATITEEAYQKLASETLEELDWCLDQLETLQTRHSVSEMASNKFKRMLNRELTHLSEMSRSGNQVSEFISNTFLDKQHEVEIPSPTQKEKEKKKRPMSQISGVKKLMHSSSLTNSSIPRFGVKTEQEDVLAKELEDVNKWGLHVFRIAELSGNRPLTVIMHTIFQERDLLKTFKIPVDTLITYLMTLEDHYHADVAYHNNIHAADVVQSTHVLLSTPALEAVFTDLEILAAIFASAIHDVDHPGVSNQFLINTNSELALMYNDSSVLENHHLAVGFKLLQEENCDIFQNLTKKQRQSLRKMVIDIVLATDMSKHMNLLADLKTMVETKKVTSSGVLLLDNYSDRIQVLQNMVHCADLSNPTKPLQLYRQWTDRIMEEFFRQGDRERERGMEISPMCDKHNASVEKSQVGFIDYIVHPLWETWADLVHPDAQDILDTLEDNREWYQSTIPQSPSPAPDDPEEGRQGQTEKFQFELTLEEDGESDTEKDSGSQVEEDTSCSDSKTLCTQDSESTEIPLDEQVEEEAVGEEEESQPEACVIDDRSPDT

## CC(C)n1c(=O)ccc2cnc(Nc3ccc(OCCN)cc3)nc21 [V16742]
[1]; 3 mg vs 1 mg lysate
  r (3 MG/1 MG LYSATE): 2.07
[1]; 5 h vs 2.5 h incubation time
  r (5 h/2.5 h INC. TIME): 0.90
[1]; [5]
  rAVERAGE (CTRL/1 INC): 0.05
[1]; immobilized VI16742
  Ki: 126 µM
[1]; second vs first incubation
  rAVERAGE (2 INC/1 INC): 0.71
[2]; 3 mg vs 1 mg lysate
  r (3 MG/1 MG LYSATE): 2.48
[2]; 5 h vs 2.5 h incubation time
  r (5 h/2.5 h INC. TIME): 1.09
[2]; [5]
  rAVERAGE (CTRL/1 INC): 0.05
[2]; immobilized VI16742
  Ki: 102 µM
[2]; second vs first incubation
  rAVERAGE (2 INC/1 INC): 0.66
[3]; [5]
  rAVERAGE (CTRL/1 INC): 0.03
[3]; immobilized VI16742
  Ki: 100 µM
[3]; second vs first incubation
  rAVERAGE (2 INC/1 INC): 0.66
[4]; 3 mg vs 1 mg lysate
  r (3 MG/1 MG LYSATE): 3.18
[4]; 5 h vs 2.5 h incubation time
  r (5 h/2.5 h INC. TIME): 1.74
[4]; [5]
  rAVERAGE (CTRL/1 INC): 0.08
[4]; immobilized VI16742
  Ki: 255 µM
[4]; second vs first incubation
  rAVERAGE (2 INC/1 INC): 0.83
